Source: paper PMC12040169 (PLOS Biology, 2025)

experiment: in vitro; settings: human, hela cells, % viability

| SMILES | viability at 28.5 h, 10 µM |
| --- | --- |
| CCNS(=O)(=O)C1CCN(c2cc(C#N)ccc2C(F)(F)F)C1 (centres unmarked) [CBK305402] | 96.2% |
| COc1ccc(NS(=O)(=O)c2cccs2)c(OC)c1 [CBK043915] | 93% |
| OCCN1CCN(c2nc3ccccc3nc2-c2ccccc2)CC1 [CBK268799C] | 111% |
| Cn1nccc1C(=O)Nc1nc(-c2ccccc2)cs1 [CBK287833] | 83.8% |
| Cc1nc(C2CN(Cc3cc4ccccc4nc3Cl)CCO2)no1 (centres unmarked) [CBK305381] | 96.5% |
| CC1(C)CC(=O)c2sc(NC(=O)Nc3ccccc3)nc2C1 [CBK287319] | 104% |
| CCc1noc(C)c1C(=O)N1CC(C(=O)N2CCN(c3ccccc3)CC2)C1 [CBK285667] | 107% |
| O=C(c1cccc(C(F)(F)F)c1)N1CCN(C(=O)c2ccc3c(c2)CCC3)CC1 [CBK298300] | 91.5% |
| Nc1ncc(-c2occc2C=O)nc1NC1CCOCC1 [CBK063789] | 103% |
| Cc1onc(-c2ccccc2)c1CNC(=O)c1cccc(C(F)(F)F)c1 [CBK144079] | 93.6% |
| C[C@H](Nc1cncc(-c2ccc3ccccc3c2)n1)c1ccccc1 [CBK065799] | 108% |
| COc1ccc2c(c1)C(=O)CC1(CCN(C(=O)/C=C/c3ccc(C)cc3)CC1)O2 [CBK156438] | 98.3% |
| O=C(O)C(Nc1nc(C(F)(F)F)nc2ccccc12)c1ccccc1 (centres unmarked) [CBK269570] | 106% |
| OCCN1CCN(c2nc(-c3cccnc3)cn3ccnc23)CC1 [CBK037887] | 99.3% |
| N#Cc1ccsc1NC(=O)CSc1nnc[nH]1 [CBK267221] | 87.7% |
| CC(C)Nc1nc2ccccc2nc1SCCc1ccncc1 [CBK103670] | 87.8% |
| CN(CCNC(=O)Nc1ccc2c(c1)oc(=O)n2C)C1CCCC1 [CBK305503] | 95.1% |
| CC1=CC(C)(NC(N)=O)NC(=S)N1 (centres unmarked) [CBK020817] | 112% |
| CN(CCN(C)C(=O)c1cc2sccc2[nH]1)CC(F)F [CBK306014] | 103% |
| CC(=O)N1CCN([C@H]2[C@@H]3OC[C@@H](O3)[C@@H](NCC3CCCCC3)[C@@H]2O)CC1 [CBK288809] | 90.6% |
| CCN(CC)CCNC(=O)C1CCCCN1S(=O)(=O)c1ccc(C)cc1 (centres unmarked) [CBK101088] | 89.9% |
| COc1cc2c(cc1CN(Cc1ccc3c(c1)OCO3)CC(C)O)CCC2 (centres unmarked) [CBK286473] | 91.6% |
| O=C(OCCC1SC(NC2CC3C=CC2C3)=NC1=O)c1c(F)cccc1Cl (centres unmarked) [CBK200061T] | 88.7% |

| SMILES | viability at 28.5 h, 10 µM |
| --- | --- |
| Cc1ncc(CN2CCCC(Cc3nc4ccccc4[nH]3)C2)s1 (centres unmarked) [CBK281902] | 99.7% |
| CC(C)(O)C#Cc1ccc(C(=O)NC(Cc2c[nH]c3ccccc23)C(=O)O)cc1 (centres unmarked) [CBK267703] | 96.5% |
| CC(=O)Nc1ccc(NC(=O)CSCC(=O)O)cc1 [CBK226269] | 89.3% |
| Nn1c(SCCCCSc2nnc(C(F)(F)F)n2N)nnc1C(F)(F)F [CBK267946] | 98.8% |
| O=C(Cc1ccc(F)cc1)N1CCC(c2cc3cnccc3[nH]2)CC1 [CBK283454] | 85.7% |
| COCCOCN1C(=O)CC2(C1=O)C(=O)N(Cc1ccc(OC(F)(F)F)cc1)c1ccccc12 (centres unmarked) [CBK075942] | 94.2% |
| CN(C)CC(=O)N1CCc2nc(-c3cccc(F)c3)sc2C1 [CBK281801] | 106% |
| CC(C)(C)C(O)CNc1ncnc2ccc(S(C)(=O)=O)cc12 (centres unmarked) [CBK306494] | 76.8% |
| O=C(O)[C@H]1CN(C(=O)CCc2ccco2)C[C@@H]1c1ccc(F)cc1 [CBK283722] | 86.5% |
| FC(F)(F)c1ccc(Sc2cccc3ccccc23)nc1 [CBK089553] | 93.7% |
| COC(=O)c1ccccc1NC(=O)CNC(=O)c1ccccc1Cl [CBK269113] | 88.8% |
| CCc1c(C)nn(-c2ccccc2Cl)c1-c1ccccc1 [CBK016736] | 106% |
| COc1ccc(-c2cncc(N(C)CCN(C)C)n2)cc1 [CBK037832] | 101% |
| CN1CCN(c2ccc([N+](=O)[O-])c(NCCCO)c2)CC1 [CBK261846C] | 86.5% |
| COc1ccc(C2(CNC(=O)C(O)COc3ccccc3)CCCC2)cc1OC (centres unmarked) [CBK014053] | 88.5% |
| Cc1ccc(CCSCC(=O)O)cn1 [CBK261072] | 95.3% |
| NS(=O)(=O)c1ccc(CNS(=O)(=O)Cc2ccccc2)cc1 [CBK228048] | 87% |
| Cc1c(C(=O)N2CCC(F)(CO)C2)nnn1-c1ccc2ncccc2c1 (centres unmarked) [CBK304483] | 101% |
| O=C(NCc1ccccc1)c1cnsn1 [CBK267302] | 90.8% |
| Cc1ccc(-c2noc(CN(C(=O)c3ccc(Br)o3)C(C)C)n2)cc1 [CBK269440] | 83.2% |
| O=S(=O)(Nc1ccc2[nH]ccc2c1)c1cccnc1 [CBK156811] | 71% |
| Cc1cc(NC(=O)c2ccc(Br)cc2)nc2c1c(=O)oc1ccccc12 [CBK291262] | 102% |
| O=C(Nc1snnc1-c1ccc(Cl)cc1)c1cccc(C(F)(F)F)c1 [CBK153246] | 72.5% |

| SMILES | viability at 28.5 h, 10 µM |
| --- | --- |
| C=CCn1ncc(CN(C)Cc2nc3ccccc3[nH]2)c1C [CBK283169] | 96% |
| CCn1cc(CN2CCCN(C(=O)c3cc(C)on3)CC2)cn1 [CBK306145] | 88.1% |
| COc1cc(-c2nc(N)cc3ccccc23)cc(OC)c1OC [CBK085726] | 102% |
| Cc1nc(-c2cccnc2)[nH]c(=O)c1CC(=O)N1CCN(C)CC1C (centres unmarked) [CBK304950] | 100% |
| O=C(O)c1ccc(OCCN2C3=NCCN3c3ccccc32)cc1 [CBK286629] | 93% |
| c1ccc2c(c1)CCC(Oc1cncc(N3CCNCC3)n1)C2 (centres unmarked) [CBK172295G] | 97% |
| Cc1nncn1-c1ccc(Cl)cc1C(=O)c1ccccc1Cl [CBK012372] | 101% |
| O=C(Cc1c[nH]cn1)N1CCN(C(=O)c2ccco2)CC1 [CBK144448] | 91.9% |
| Cc1cc(N2CCN(C(=O)OC(C)(C)C)CC2)nc(N)n1 [CBK001843] | 110% |
| CC(=O)NCCSc1nc2ccccc2nc1N1CCCC1 [CBK103696] | 99% |
| Cc1ccnc(N2CCOC3(CCCC3)C2)n1 [CBK304794] | 93.1% |
| Cc1cc(C)nc(Nc2n[nH]c(-c3ccccc3Cl)n2)n1 [CBK288167] | 98.2% |
| O=C1CCC(=O)N1 [CBK073851] | 88.7% |
| COc1ccccc1N1CCN(C(=O)CN2C(=O)c3ccccc3C2=O)CC1 [CBK091501] | 95.5% |
| CCN(CC)C(=O)CN1CC=C(c2ccc(C)o2)CC1 [CBK283497] | 100% |
| Cc1ccc(C(C)C)c(OCC(=O)n2nc(C)cc2C)c1 [CBK058196] | 87.9% |
| FC(F)c1cc([C@@H]2CN(CC3CCOC3)C[C@H]2c2ccccc2)n[nH]1 (some centres unmarked) [CBK285430] | 98.5% |
| Nc1nnc(SCC(=O)N2CCN(C(c3ccccc3)c3ccccc3)CC2)s1 [CBK266320] | 99.2% |
| Cc1ccccc1OCC1CCCN(C(=O)C2CC(=O)OC2(C)C)C1 (centres unmarked) [CBK282062] | 92.7% |
| C(=C\c1ccccc1)/CN1CCN(CCc2ccccc2)CC1 [CBK261893] | 93.4% |
| COC(=O)c1ccc(N2CCN(Cc3cnoc3C)C(C)C2)cc1 (centres unmarked) [CBK306442] | 109% |
| CCN(C)C(=O)N1CCN(CCCC(c2ccc(F)cc2)c2ccc(F)cc2)CC1 [CBK024910C] | 90.6% |
| Cc1ccc(S(=O)(=O)NCCSc2nc(-c3ccc([N+](=O)[O-])cc3)c[nH]2)cc1 [CBK268518] | 97% |

| SMILES | viability at 28.5 h, 10 µM |
| --- | --- |
| Cc1ccc(NC(=O)c2cnc3n(c2=O)CCS3)cc1 [CBK287376] | 108% |
| CCOC(=O)NC(Nn1cnnc1)(C(F)(F)F)C(F)(F)F [CBK261344] | 117% |
| C=CCn1c(COc2cccc3ccc(C)nc23)nnc1SC [CBK266608] | 94.2% |
| Cc1cccc(-n2c(C#N)c(O)c3ccccc32)c1C [CBK115319] | 106% |
| CS(=O)(=O)c1ccc(-n2cc(-c3cccnc3)nn2)cc1 [CBK113061] | 104% |
| CCCN1CCC(CNC(=O)c2cc(C3CCCCC3)no2)CC1 [CBK283297] | 98.2% |
| Cc1ncsc1CCN(C)C(C)C(=O)Nc1nccs1 (centres unmarked) [CBK307709] | 109% |
| CCCn1c(-c2ccccc2OC(F)(F)F)n[nH]c1=O [CBK074238] | 110% |
| COc1cccc(-c2nccc3ccn(CC(=O)N4CC=CCC4)c23)c1 [CBK284806] | 104% |
| Cc1cc(-c2ccc(/N=C/c3cccc(O)c3O)c(C)c2)ccc1/N=C/c1cccc(O)c1O [CBK261613] | 82.6% |
| CCc1ccc2[nH]c3nc(NN)nnc3c2c1 [CBK262734] | 65.1% |
| C#C[C@H]1C[N@@]2CC[C@H]1C[C@@H]2CNS(=O)(=O)c1ccc(NC(C)=O)cc1 [CBK288752] | 103% |
| O=c1c2cc(Br)cc(F)c2ncn1CCC1CCCO1 (centres unmarked) [CBK306451] | 95.9% |
| COCCCN(Cc1ccccn1)Cc1cccc(F)c1F [CBK282947] | 84.5% |
| CC(=O)c1ccc(N2CCN(C(=O)c3cc(-c4ccncc4)nc4ccc(Cl)cc34)CC2)cc1 [CBK267781] | 91.8% |
| Cc1nc2c(c(=O)[nH]1)CN(C(=O)c1cc(C3CC3)oc1C)CC2 [CBK283650] | 103% |
| N#Cc1ccc(C(=O)Nc2ccc(N3CCNCC3)nc2)cc1 [CBK029435T] | 95.2% |
| CCc1nc2ccc(C(=O)NCC3CCCCC3)cn2c1N(C)Cc1ccc(OC)cc1 [CBK145568] | 91.1% |
| CCCC(=O)Nc1sc(C)c(C)c1C(=O)Nc1ccccc1OC [CBK262455] | 104% |
| CCOC(=O)C1CCN(Cn2nc(O)ccc2=O)CC1 [CBK263331] | 90.7% |
| CC(NS(=O)(=O)c1ccccc1Cl)C(=O)N1CCCCC1C (centres unmarked) [CBK305797] | 93.9% |
| O=[N+]([O-])c1ccccc1CN1CCC(N2CCCCC2)CC1 [CBK261852] | 88.7% |
| Cc1nn(Cc2ccc(Cl)cc2)c(C)c1NC(=O)CCC(=O)O [CBK287051] | 88.5% |
